Measurements: patent US12325695B2, “5-(4-pyridyloxy)pyrazole compounds serving as TGF-βR1 kinase inhibitor” (JIANGSU AOSAIKANG PHARMACEUTICAL CO., LTD., priority 2019, dated 2025)

How the values were obtained:
pSmad = assay: Inhibitory activity assay on Smad phosphorylation (HEK-Blue-TGFβ cells, Quanti-Blue readout); assay type: cell-based; settings: TGFβ stimulation, 24 hours, read-out: pSmad inhibition IC50
Experimental: Experimental Embodiment 1: Inhibitory Activity Assay on Smad Phosphorylation
Both HEK-Blue-TGFβ cells and Quanti-Blue reagent were purchased from Invivogen Company. TGFβ was purchased from PeproTech.
The compounds to be tested were diluted 5 times with a row gun to the 8th concentration, that is, diluted from 1 mmol/L to 12.8 nmol/L, the final concentration of dimethyl sulfoxide was 100%, and a double hole experiment was set up. 2 μL of inhibitors of each concentration gradient, 18 μL of TGFβ (20 ng/mL), and 180 μL of cell suspension (140,000 cells/mL) were added to the microplate. At this time, the final concentration gradient of the compound was […] diluted to 0.13 nmol/L. The cell plate was placed at 37° C. in a 5% CO2 incubator for 24 hours. After the reaction was completed, 40 μL of cell culture supernatant was taken out from each well to a new transparent microtiter plate, 160 μL of Quanti-Blue reagent was added to each well, and then the reaction was carried out at 37° C. for 60 minutes. After the reaction was completed, the PerkinElmer Envision multi-label analyzer was used to read the absorption light at 630 nm.
The original data was converted into the inhibition rate, and the IC50 value can be obtained by curve fitting with four parameters.

[1] = Pharmacokinetics study of cassette drug administration in vivo; parameters: species or system CD-1 male mice; settings: male, mouse, plasma, CD-1 mice; for Vd: read-out: Vdss; for bioavailability: oral (1.5 mg/kg) vs injection (1 mg/kg), read-out: F (bioavailability)
Experimental: Experimental Embodiment 2: Pharmacokinetics Study of Cassette Drug Administration in Vivo
The purpose of this experiment is to evaluate the pharmacokinetic behavior of the compound after a single intravenous injection and intragastric administration, and to investigate the bioavailability after intragastric administration.
CD-1 male mice aged from 7 to 10 weeks were selected, and the doses for intravenous and oral administration were 1 mg/kg and 1.5 mg/kg, respectively. The mice were fasted for at least 12 hours before the administration, and resumed feeding 4 hours after the administration. The mice were free to drink during the entire experiment.
(§1) On the day of the experiment, animals in the intravenous group were given a single injection of the corresponding compound through the tail vein with a volume of 5 mL/kg; the oral group was given the corresponding compound by a single gavage with a volume of 5 mL/kg. The animals were weighed before administration, and the administration volume was calculated according to the body weight. Sample collection time: 0.083 hours, 0.25 hours, 0.5 hours, 1 hour, 2 hours, 4 hours, 8 hours, 24 hours in the injection group; 0.25 hours, 0.5 hours, 1 hour, 2 hours, 4 hours, 6 hours, 8 hours, 24 hours in the gavage group. Approximately 30 μL of whole blood was collected through the saphenous vein at each time point to prepare plasma for high-performance liquid chromatography-tandem mass spectrometry (LC-MS/MS) for concentration determination. All animals were euthanized by CO2 anesthesia after collecting PK samples at the last time point. The non-compartmental model of WinNonlin™ Version 6.3 (Pharsight, Mountain View, CA) pharmacokinetic software was used to process the plasma concentration, and the pharmacokinetic parameters were calculated using the linear and logarithmic trapezoidal method.

[2] = test system: mouse colon cancer CT-26 cells; assay: Anti-tumor drug efficacy study, mouse colon cancer CT-26 cell BALB/c mouse subcutaneous allograft tumor model; assay type: in vivo, BALB/c mice; settings: 50 mg/kg, twice a day, oral
Experimental: (§2) Experimental Embodiment 3: Anti-Tumor Drug Efficacy Study of Mouse Colon Cancer CT-26 Cell BALB/c Mouse Subcutaneous Allograft Tumor Model In Vivo
The main purpose of this study is to study the anti-tumor drug efficacy of the tested compounds on the CT26 mouse allograft tumor model.
(§3) Cell culture: mouse colon cancer CT-26 cells were cultured in monolayer in vitro, and the culture conditions were RPMI-1640 medium with 10% fetal bovine serum, 37° C. and 5% carbon dioxide incubator. Trypsin-ethylenediaminetetraacetic acid (EDTA) was used for routine digestion and passage twice a week. When the cell saturation was 80%-90% and the number reached the requirement, the cells were collected, counted, and inoculated.
(§4) Animals: BALB/c mice, female, 6-8 weeks old.
(§5) Tumor inoculation: 0.1 mL of DPBS cell suspension containing 3×10^5 CT26 cells was subcutaneously inoculated into the right groin of each mouse, and administration was started on the day of inoculation.
Experimental index: The experimental index was to investigate whether the tumor growth was inhibited, delayed or cured. The tumor diameter was measured with a vernier caliper twice a week. The calculation formula for tumor volume is: V=0.5 L×W^2, where L and W refer to the long diameter and short diameter of the tumor, respectively.

[3] = Drug concentration in tumor tissue and plasma AUC in the CT26 tumor model study; assay type: in vivo, BALB/c mice; settings: 50 mg/kg, twice a day, oral; for AUC: female, BALB/c, mouse, plasma
Experimental: as §2, §3, §4, §5

[4] = Pharmacokinetic studies in vivo (single compound); parameters: species or system CD-1 male mice; settings: CD-1 mice; for AUC(0-t) / clearance / half-life / Vd / Cmax / Tmax: male, mouse, plasma; for Vd: read-out: Vdss
Experimental: Experiment 4: Pharmacokinetic Studies In Vivo
The purpose of this experiment is to evaluate the pharmacokinetic behavior of the compounds after a single intravenous injection and intragastric administration, and to investigate the bioavailability after intragastric administration.
[…] The mice were fasted for at least 12 hours before the administration, and resumed feeding 4 hours after the administration. The mice were free to drink during the entire experiment.
as §1, with “volume of 10 mL/kg. The” for “volume of 5 mL/kg. The”, “the injection group, 0.25 hours,” for “the injection group; 0.25 hours,”

NC(=O)c1cccc(Nc2cc(Oc3c4c(nn3C3CCOCC3)CCC4)ccn2)c1 [Compound 16]
IC50 (pSmad): 166 nM

Cc1cccc(-n2nccc2Oc2ccnc(Nc3cccc(C(N)=O)c3)c2)n1 [Compound 2]
IC50 (pSmad): 247 nM

Cc1cccc(-n2nc(C)cc2Oc2ccnc(Nc3cnn(CCO)c3)c2)n1 [Compound 10]
IC50 (pSmad): 355 nM

Cc1cccc(-n2nc(C)cc2Oc2ccnc(Nc3cccc(C(N)=O)c3)c2)c1 [Compound 1]
IC50 (pSmad): 65.5 nM

NC(=O)c1cccc(Nc2cc(Oc3cc(C4CC4)nn3C3CCOCC3)ccn2)c1 [Trifluoroacetate of compound 18]
IC50 (pSmad): 283 nM

COc1cccc(-n2nc(C)cc2Oc2ccnc(Nc3cccc(C(N)=O)c3)c2)n1 [Compound 12]
IC50 (pSmad): 432 nM

Cc1cccc(-n2nc(C)cc2Oc2ccnc(Nc3cnccn3)c2)n1 [Compound 8]
IC50 (pSmad): 684 nM

Cc1cccc(-n2nc(C)cc2Oc2ccnc(Nc3ccnc(C(C)(C)O)c3)c2)n1 [Compound 9]
IC50 (pSmad): 268 nM

Cc1cccc(-c2nn3c(c2-c2ccnc4ccc(C(N)=O)cc24)CCC3)n1 [Compound A, Galunisertib, reference compound]
AUC(0-t) ([1]; iv, injection (1 mg/kg)): 1.15 µM·h | clearance ([1]; iv, injection (1 mg/kg)): 37.3 mL/min/kg | half-life ([1]; iv, injection (1 mg/kg)): 0.477 h | Vd ([1]; iv, injection (1 mg/kg)): 0.679 L/kg | bioavailability [1]: 34.9% | AUC(0-t) ([1]; oral (1.5 mg/kg)): 0.586 µM·h | Cmax ([1]; oral (1.5 mg/kg)): 712 nM | Tmax ([1]; oral (1.5 mg/kg)): 0.25 h | half-life ([1]; oral (1.5 mg/kg)): 1.45 h | % Inhibitory rate on Day 29 [2]: 66% | Mean tumor volume Day 29 [2]: 758.19 mm^3 | Drug concentration in tumor tissue 1 hour after administration [3]: 988 nmol/kg | Drug concentration in tumor tissue 12 hours after administration [3]: 180 nmol/kg | AUC [3]: 6.17 µM·h | AUC(0-t) ([4]; iv, injection, 1 mg/kg): 0.814 µM·h | clearance ([4]; iv, injection, 1 mg/kg): 56 mL/min/kg | half-life ([4]; iv, injection, 1 mg/kg): 0.45 h | Vd ([4]; iv, injection, 1 mg/kg): 1.31 L/kg | AUC(0-t) ([4]; oral, 5 mg/kg): 1.37 µM·h | Cmax ([4]; oral, 5 mg/kg): 1840 nM | Tmax ([4]; oral, 5 mg/kg): 0.25 h | half-life ([4]; oral, 5 mg/kg): 1.1 h | F ([4]; oral 5 mg/kg vs injection 1 mg/kg): 33.5%

Cc1cccc(-n2nc(C)cc2Oc2ccnc(Nc3cccc(C(N)=O)c3)c2)n1 [Compound 6]
IC50 (pSmad): 79.2 nM | AUC(0-t) ([1]; iv, injection (1 mg/kg)): 1.81 µM·h | clearance ([1]; iv, injection (1 mg/kg)): 24.9 mL/min/kg | half-life ([1]; iv, injection (1 mg/kg)): 1.32 h | Vd ([1]; iv, injection (1 mg/kg)): 1.05 L/kg | bioavailability [1]: 54.6% | AUC(0-t) ([1]; oral (1.5 mg/kg)): 1.45 µM·h | Cmax ([1]; oral (1.5 mg/kg)): 804 nM | Tmax ([1]; oral (1.5 mg/kg)): 0.25 h | half-life ([1]; oral (1.5 mg/kg)): 2.84 h | % Inhibitory rate on Day 29 [2]: 73% | Mean tumor volume Day 29 [2]: 601.7 mm^3

Cc1cccc(-n2nc3c(c2Oc2ccnc(Nc4cccc(C(N)=O)c4)c2)CCCC3)n1 [Compound 3]
IC50 (pSmad): 54.3 nM

Cc1cccc(-n2nc(C)cc2Oc2ccnc(Nc3ccn(CC(C)(C)O)n3)c2)n1 [Compound 11]
IC50 (pSmad): 191 nM

CC(C)c1cc(Oc2ccnc(Nc3cccc(C(N)=O)c3)c2)n(C2CCOCC2)n1 [Compound 19]
IC50 (pSmad): 587 nM

Cc1cc(Oc2ccnc(Nc3cccc(C(N)=O)c3)c2)n(C2CCOCC2)n1 [Compound 14]
IC50 (pSmad): 336 nM | AUC(0-t) ([1]; iv, injection (1 mg/kg)): 1.06 µM·h | clearance ([1]; iv, injection (1 mg/kg)): 37 mL/min/kg | half-life ([1]; iv, injection (1 mg/kg)): 1.37 h | Vd ([1]; iv, injection (1 mg/kg)): 2.39 L/kg | bioavailability [1]: 75.9% | AUC(0-t) ([1]; oral (1.5 mg/kg)): 1.16 µM·h | Cmax ([1]; oral (1.5 mg/kg)): 567 nM | Tmax ([1]; oral (1.5 mg/kg)): 0.25 h | half-life ([1]; oral (1.5 mg/kg)): 1.61 h | % Inhibitory rate on Day 29 [2]: 81% | Mean tumor volume Day 29 [2]: 424.78 mm^3 | Drug concentration in tumor tissue 1 hour after administration [3]: 11318 nmol/kg | Drug concentration in tumor tissue 12 hours after administration [3]: 820 nmol/kg | AUC [3]: 30.1 µM·h | AUC(0-t) ([4]; iv, injection, 1 mg/kg): 1.34 µM·h | clearance ([4]; iv, injection, 1 mg/kg): 31.5 mL/min/kg | half-life ([4]; iv, injection, 1 mg/kg): 1.17 h | Vd ([4]; iv, injection, 1 mg/kg): 1.64 L/kg | AUC(0-t) ([4]; oral, 2.5 mg/kg): 2.7 µM·h | Cmax ([4]; oral, 2.5 mg/kg): 1560 nM | Tmax ([4]; oral, 2.5 mg/kg): 0.5 h | half-life ([4]; oral, 2.5 mg/kg): 1.15 h | F ([4]; oral 2.5 mg/kg vs injection 1 mg/kg): 80.9%

Cc1nn(C2CCOCC2)c(Oc2ccnc(Nc3cccc(C(N)=O)c3)c2)c1C [Compound 15]
IC50 (pSmad): 416 nM

CCc1cc(Oc2ccnc(Nc3cccc(C(N)=O)c3)c2)n(-c2cccc(C)n2)n1 [Compound 4]
IC50 (pSmad): 53.8 nM

Cc1cccc(-n2nc3c(c2Oc2ccnc(Nc4cccc(C(N)=O)c4)c2)CCC3)n1 [Compound 13]
IC50 (pSmad): 59.6 nM

Cc1cccc(-n2nc(C)cc2Oc2ccnc(Nc3cnn(CC(C)C)c3)c2)n1 [Compound 7]
IC50 (pSmad): 354 nM

Cc1cccc(-n2nc(C)cc2Oc2ccnc(Nc3cnn(CC(C)(C)O)c3)c2)n1 [Compound 5]
IC50 (pSmad): 441 nM

NC(=O)c1cccc(Nc2cc(Oc3c4c(nn3C3CCOCC3)CCCC4)ccn2)c1 [Compound 17]
IC50 (pSmad): 621 nM
